# Laboratory results as given in patent US20150143553A1, “Methods And Compositions Comprising A Drosophila Model Of Amyotrophic Lateral Sclerosis” (priority 2013, published 2015).
# Structures can show the parent of a compound that is named as a salt.
# How the values were obtained:
# Assay type in all cases: in vivo
# [1] = tested on: Drosophila larvae expressing G298S TDP-43 in motor neurons; assay: Drug screen: rescue of lethality caused by G298S TDP-43 expression in motor neurons (D42 Gal4)
# Source text: […] Larvae expressing TDP-43 (wild type or mutant, as shown) are raised on drug containing food.
# […] Larvae expressing TDP-43 (wt or mutant) were raised on drug containing food.
# (§1) Using a Drosophila model of ALS based on TDP-43 that recapitulates several aspects of the disease pathophysiology (33, 35), a drug screen aimed at identifying FDA approved compounds with neuroprotective potential in vivo were designed (FIG. 37A). […] This phenotype was used to screen for drug candidates with therapeutic potential as determined by their ability to rescue pupal lethality and produce viable adults with extended wings (FIG. 37A).
# Larvae expressing TDP-43 in motor neurons (D42>TDP-43) were raised on fly food containing different amounts of drug (1, 10 and 25 μM, see Materials and Methods for details) or Dimethyl Sulfoxide (DMSO) as vehicle control (FIG. 37B, C).
# UAS TDP-43 males were crossed with D42-Gal4 female virgins on fly food containing either DMSO or pioglitazone. For DMSO controls, the same volume of DMSO as the corresponding drug concentration was added. Bromophenol blue was added to a final concentration of approximately 0.02% to ensure homogeneity. Crosses were made on drug food with 3 female virgins and 2 males in each vial, and were maintained at 25° C. unless noted. The parents were discarded after 5-7 days then the vials were screened for adult progeny with straight wings from day 14 to day 25. All adults were screened for TDP-43 expression by visualizing the YFP tag. Total number of pupae was counted on day 25. Percent survival was calculated using the formula (total number of straight-winged adults/total number of pupae)×100. All experiments were performed in triplicate.
# [2] = tested on: Drosophila larvae expressing wild-type TDP-43 in motor neurons; assay: Drug screen: rescue of lethality caused by wild-type TDP-43 expression in motor neurons (D42 Gal4); conditions: transgene WT2
# [3] = tested on: Drosophila larvae expressing D169G TDP-43 in motor neurons; assay: Drug screen: rescue of lethality caused by D169G TDP-43 expression in motor neurons (D42 Gal4); conditions: transgene D169G; 50 μM in fly food
# Description: (§2) 1200 FDA approved drugs from the Prestwick collection were fed to flies expressing TDP-43 at an initial concentration of 50 μM (as previously described in Chang et al., 2008).
# (§3) FDA approved drugs from the Prestwick collection (200 mM in DMSO) are mixed with yeast-cornmeal based food and a bromophenol blue (as a mixing indicator) at a final concentration of 50 μM. Larvae expressing TDP-43 (wild type or mutant, as shown) are raised on drug containing food.
# (§4) FDA approved drugs from the Prestwick collection (200 mM in DMSO) were mixed with yeast-cornmeal based food and a bromophenol blue (as a mixing indicator) at a final concentration of 50 μM. Larvae expressing TDP-43 (wt or mutant) were raised on drug containing food.
# as §1
# [4] = tested on: Drosophila larvae expressing D169G TDP-43 in motor neurons; assay: as above; conditions: transgene D169G; 30 μM in fly food
# [5] = tested on: Drosophila larvae expressing A315T TDP-43 in motor neurons; assay: Drug screen: rescue of lethality caused by A315T TDP-43 expression in motor neurons (D42 Gal4); conditions: transgene A315T; 50 μM in fly food
# Description: as §2, §3, §4, §1
# [6] = transgene G298S, 50 μM in fly food
# [7] = transgene G298S, 30 μM in fly food
molecule,measurement,setting,value
CCCN(CCC)C(=O)C(CCC(=O)O)NC(=O)c1ccccc1 (stereo not drawn) [Proglumide],Preliminary rescue result: adults with normal wings,[1]; [6],3 Adults Normal Wings
same,Preliminary rescue result: adults with normal wings,[2]; 50 μM in fly food,"1 Adult Normal Wings, Adults"
CN(C)CCC=C1c2ccccc2C=Cc2ccccc21 [Cyclobenzaprine HCl],Preliminary rescue result: adults with normal wings,[3],1 Adult Normal Wings Adults
COc1ccc(-c2ccc(=N)n(CCCC(=O)O)n2)cc1 [Gabazine],Preliminary rescue result: adults with normal wings,[1]; [6],2 Adults Straight Wings
same,Preliminary rescue result: adults with normal wings,[2]; 50 μM in fly food,"4 Adults Normal Wings,"
Tyloxapol,Preliminary rescue result: adults with normal wings,[4],1 Adult Normal Wings Adults
CCOC(=O)C(C)(C)Oc1ccc(Cl)cc1 [Clofibrate],Preliminary rescue result: adults with normal wings,[3],1 Adult Normal Wings Adults
CCCC(C)C1(CC)C(=O)NC(=O)NC1=O (stereo not drawn) [Pentobarbital],Preliminary rescue result: adults with normal wings,[5],3 Adult Normal Wings Adults
CC(=O)NCCCS(=O)(=O)[O-].CC(=O)NCCCS(=O)(=O)[O-].[Ca+2] [Acamprosate Calcium],Preliminary rescue result: adults with normal wings,[3],1 Adult Normal Wings Adults
C[C@]12Cc3c[nH]nc3C[C@@H]1CC[C@@H]1[C@@H]2CC[C@@]2(C)[C@H]1CC[C@]2(C)O [Stanozolol],Preliminary rescue result: adults with normal wings,[3],3 Adult Normal Wings Adults
CC(=O)N[C@@H](CS)C(=O)O [Acetylcysteine],Preliminary rescue result: adults with normal wings,[1]; [7],1 Adults
same,Preliminary rescue result: adults with normal wings,[4],1 Adults
CCCC(CCC)C(=O)O [Valproic Acid],Preliminary rescue result: adults with normal wings,[1]; [7],1 Adults
same,Preliminary rescue result: adults with normal wings,[2]; 30 μM in fly food,2 Adults
O=c1n(CCCN2CCN(c3cccc(Cl)c3)CC2)nc2ccccn12 [Trazodone],Preliminary rescue result: adults with normal wings,[1]; [6],1 Adult Normal Wings Adults
C[N+]1(C)CCOC(O)(c2ccc(-c3ccc(C4(O)C[N+](C)(C)CCO4)cc3)cc2)C1.[Br-].[Br-] (stereo not drawn) [Hemicholinium Bromide],Preliminary rescue result: adults with normal wings,[1]; [6],1 Adult Normal Wings Adults
CN(C)CCC=C1c2ccccc2CCc2ccccc21.Cl [Amitryptiline Hydrochloride],Preliminary rescue result: adults with normal wings,[1]; [6],1 Adult Normal Wings Adults
CN1CCN(c2c(F)cc3c(=O)c(C(=O)O)cn(CCF)c3c2F)CC1 [Fleroxacin],Preliminary rescue result: adults with normal wings,[1]; [7],1 Adults
same,Preliminary rescue result: adults with normal wings,[2]; 30 μM in fly food,3 Adults
CCn1nc(C(=O)O)c(=O)c2cc3c(cc21)OCO3 [Cinoxacin],Preliminary rescue result: adults with normal wings,[1]; [7],1 Adult Normal Wings Adults
CN1CCCN(C(c2ccccc2)c2ccc(Cl)cc2)CC1 (stereo not drawn) [Homochlorcyclizine],Preliminary rescue result: adults with normal wings,[5],1 Adult Normal Wings Adults
same,Preliminary rescue result: adults with normal wings,[2]; 50 μM in fly food,"3 Adults Normal Wings,"
Pyrantel Tartrate,Preliminary rescue result: adults with normal wings,[1]; [6],1 Adult Normal Wings Adults
Nc1nc(NC2CC2)c2ncn([C@H]3C=C[C@@H](CO)C3)c2n1 [Abacavir Sulfate],Preliminary rescue result: adults with normal wings,[1]; [7],1 Adult Normal Wings Adults
CCC1(c2cccc(O)c2)CCCCN(C)C1 (stereo not drawn) [Meptazinol Hydrochloride],Preliminary rescue result: adults with normal wings,[1]; [7],1 Adult Normal Wing Adults
Oc1c(Cl)cc(Cl)c2cccnc12 [Chloroxine],Preliminary rescue result: adults with normal wings,[3],1 Adult Normal Wings Adults
CC(C)NC[C@@H](O)COc1ccc(CC(N)=O)cc1 [R-(+)-Atenolol],Preliminary rescue result: adults with normal wings,[4],1 Adults
same,Preliminary rescue result: adults with normal wings,[2]; 30 μM in fly food,2 Adults
Clc1ccc(Nc2nnc(Cc3ccncc3)c3ccccc23)cc1 [Vatalanib],Preliminary rescue result: adults with normal wings,[3],1 Adult Normal Wings Adults
CCCCNc1ccc(C(=O)OCCN(C)C)cc1 [Tetracaine Hydrochloride],Preliminary rescue result: adults with normal wings,[5],2 Adult Normal Wings Adults
O=C(NCCNCC(O)COc1ccc(O)cc1)N1CCOCC1.O=C(NCCNCC(O)COc1ccc(O)cc1)N1CCOCC1.O=C(O)/C=C/C(=O)O (stereo not drawn) [Xamoterol HemifiμMarate],Preliminary rescue result: adults with normal wings,[1]; [7],1 Adult Normal Wing Adults
COc1ccc(C(CN(C)C)C2(O)CCCCC2)cc1 (stereo not drawn) [Venlafaxine],Preliminary rescue result: adults with normal wings,[1]; [6],1 Adult Normal Wings Adults
Cc1ccccc1C(OCCN(C)C)c1ccccc1 (stereo not drawn) [Orphenadrine],Preliminary rescue result: adults with normal wings,[1]; [6],1 Adult Normal Wings Adults
C1N2CN3CN1CN(C2)C3 [Methenamine],Preliminary rescue result: adults with normal wings,[1]; [7],1 Adults
same,Preliminary rescue result: adults with normal wings,[2]; 30 μM in fly food,2 Adults
Cn1c([N+](=O)[O-])cnc1COC(N)=O [Ronidazole],Preliminary rescue result: adults with normal wings,[1]; [7],1 Adult Normal Wings Adults
C[N+]1(C)CCCC(OC(=O)C(O)(c2ccccc2)c2ccccc2)C1 (stereo not drawn) [Mepenzolate Bromide],Preliminary rescue result: adults with normal wings,[1]; [6],2 Adult Normal Wings Adults
Nc1ccn([C@@H]2CS[C@H](CO)O2)c(=O)n1 [Lamivudine],Preliminary rescue result: adults with normal wings,[1]; [6],2 Adults Normal Wings
CCOC(=O)C1=C(C)NC(C)=C(C(=O)OCC)C1c1ccccc1/C=C/C(=O)OC(C)(C)C [Lacidipine],Preliminary rescue result: adults with normal wings,[1]; [6],7 Adults
same,Preliminary rescue result: adults with normal wings,[2]; 50 μM in fly food,3 Adults
CC[C@@H](C(N)=O)N1CCCC1=O [Levetiracetam],Preliminary rescue result: adults with normal wings,[5],3 Adult Normal Wings Adults
c1ccc(-c2ccc(C(c3ccccc3)n3ccnc3)cc2)cc1 (stereo not drawn) [Bifonazole],Preliminary rescue result: adults with normal wings,"[1]; transgene G298S4, 30 μM in fly food",1 Adult Normal Wings Adults
Clc1ccc(C(Cn2ccnc2)OCc2ccsc2Cl)c(Cl)c1 (stereo not drawn) [Tioconazole],Preliminary rescue result: adults with normal wings,[5],2 Adults Normal Wings
CN(C)CCC(c1ccccc1)c1ccccn1 (stereo not drawn) [Pheniramine Maleate],Preliminary rescue result: adults with normal wings,[1]; [6],1 Adult Normal Wings Adults
OCc1cc(C(O)CNCCCCCCOCCCCc2ccccc2)ccc1O (stereo not drawn) [Salmeterol],Preliminary rescue result: adults with normal wings,[4],1 Adult Normal Wings × 2 Adults
same,Preliminary rescue result: adults with normal wings,[2]; 30 μM in fly food,1 Adult Normal Wings × 2 Adults
O=C(O)c1ccccc1Nc1cccc(C(F)(F)F)c1 [Flufenamic Acid],Preliminary rescue result: adults with normal wings,[1]; [6],1 Adult Normal Wings Adults
Cc1cccc(CN2CCN(C(c3ccccc3)c3ccc(Cl)cc3)CC2)c1 (stereo not drawn) [Meclozine Dihcl],Preliminary rescue result: adults with normal wings,[3],6 Adults Normal Wings
NCCCNCCSP(=O)(O)O [Amifostine],Preliminary rescue result: adults with normal wings,[1]; [6],1 Adult Normal Wings Adults
N#CC(c1ccc(Cl)cc1)c1c(Cl)cc(-n2ncc(=O)[nH]c2=O)cc1Cl (stereo not drawn) [Diclazuril],Preliminary rescue result: adults with normal wings,[1]; [7],1 Adults
same,Preliminary rescue result: adults with normal wings,[2]; 30 μM in fly food,2 Adults
